Experimental data as given in PMC9181852, “In Vivo and In Vitro Biological Evaluation and Molecular Docking Studies of Compounds Isolated from Micromeria biflora (Buch. Ham. ex D.Don) Benth” (Molecules, 2022).

Assays:
[1] = Traction muscle relaxation model; assay type: in vivo, mice (Balb/c); details: dose 1 mg/kg
Method: (§1) Healthy mice (Balb/c) with weight ranging from 20 to 22 g and ages 9 to 10 weeks were used in this screening model. The grown animals were provided with standard laboratory conditions such as standard food and water ad libitum. The in vivo biological screening test was performed at the Department of Veterinary Medicine, College of Agriculture and Veterinary Medicine, Qassim University Buraydah, Saudi Arabia, as well as Swabi University, KP, Pakistan, according to published procedures.
A traction screening model was adapted to identify the relaxation of muscle for salicylalazine isolated from M. biflora according to the standard method. The traction model was considered by using metallic wires covered with rubber, and then the wires were linked with each other using a stand around 60 cm upstairs of the lab bench. The animals were distributed into different groups, with each group comprising six animals (n = 6). The various groups of animals were administered water, diazepam, and salicylalazine at different doses. After administration, all groups of animals were subjected to traction screening after 30, 60, and 90 min. […] Traction testing was repeatedly performed to calculate the muscle relaxant ability of salicylalazine as per the reported method.

Open field sedative test = assay type: in vivo, mice (Balb/c); details: dose 0.5 mg/kg, 30 min after administration
Method: as §1
The sedative potential of salicylalazine isolated from M. biflora was assessed as per the reported procedure. The animals were divided into different groups, as designated above. The apparatuses used in this screening contained an area of white wood with a 150 cm diameter bordered by stainless steel walls and was separated into 19 squares by black lines. Then, the open field apparatus was positioned inside the light and sound-reduced room. The different groups of animals were administered distilled water, diazepam, and salicylalazine at different doses. Thirty minutes after administration, all groups of animals were permitted to move from the center of the design box. […] Statistical calculations were performed by counting the number of lines crossed by every animal.

[2] = Inclined plane muscle relaxation model; assay type: in vivo, mice (Balb/c); details: dose 1 mg/kg
Method: as §1
An inclined plane screening procedure was adapted to identify the muscle relaxation effects of salicylalazine isolated from M. biflora according to a reported procedure. The inclined plane used in screening contained two plywood boards, and these boards were connected, where one board was at 60 0 from the base while the other one was aligned from the base. Various groups of animals were distributed into several groups; each group comprised six animals (n = 6). Animals in each group were administered water (10 mL/kg), standard drug (diazepam, 1 mg/kg), and salicylalazine at different doses of 2.5, 5, 10, 15, and 20 mg/kg, i.p. After various time intervals, such as 30, 60, and 90 min post-administration, animals were allowed on the higher part of the inclined plane for 30 s to drop or hang.

A498 = experiment: Anticancer MTT assay, A498; assay type: cell-based; details: Homo sapiens, 24 h
Method: (§2) The MTT assay was used to assess the cytotoxicity of salicylalazine isolated from M. biflora as per the previously documented method. For the MTT assay, Gibco BRL was combined with 100 µg/mL of penicillin sodium salts, 10% FBS (Gibco), and sodium carbonate (2 mg/mL). The prepared medium was used to keep three human cancer cell lines: human hepatoma (HepG2), human A498, and renal NCI-h226 non-small cell lung). Mouse hepatocytes, including HepG2 and HepG-R, were planted in 96-well plates. The cell lines were preserved with salicylalazine (1.5–100 μM), hatched for 24 h, and then they were tracked using the MTT procedure^14. This method was used for all tested cell lines. The IC50 value of salicylalazine in different cell lines was calculated from the concentration-effect curves. The standard drug used in this experiment was paclitaxel.

NCI-H226 = experiment: Anticancer MTT assay, NCI-H226; assay type: cell-based; details: Homo sapiens, 24 h
Method: as §2

MDR2780AD = experiment: Anticancer MTT assay, MDR2780AD; assay type: cell-based; details: 24 h
HepG2 = experiment: Anticancer MTT assay, HepG2; assay type: cell-based; details: Homo sapiens, 24 h
Method: as §2

Hot plate analgesic test = assay type: in vivo, mice (Balb/c); details: dose 10 mg/kg
Method: as §1
The analgesic effect of salicylalazine isolated from M. biflora was obtained with help of a hot plate according to the published method. The animals were distributed into different groups according to the previously reported method. A preliminary screening test was performed on the animals using a hot plate (Harvard apparatus) sustained at 55 ± 2 °C. […] Group I (positive control) was administered with the standard drug, while Group II (negative control) was administered with normal saline. The other groups of animals were administered with 2.5, 5, 10, 15, and 20 mg/kg (PO). […] To avoid tissue damage, a cut-off time of 30 s was used for every animal. The latency time was recorded for all groups (n = 6) at consistent intervals (30, 60, 90, and 120 min).

CN1C(=O)CN=C(c2ccccc2)c2cc(Cl)ccc21 [Diazepam, reference compound]
Traction Test (%) ([1]; 30 min): 100 ± 0.00% | Traction Test (%) ([1]; 60 min): 100 ± 0.00% | Traction Test (%) ([1]; 90 min): 100 ± 0.00% | No of Lines Crossed (Open field sedative test): 9.01 ± 0.51 | Inclined Plane Test (%) ([2]; 30 min): 100 ± 0.00% | Inclined Plane Test (%) ([2]; 60 min): 100 ± 0.00% | Inclined Plane Test (%) ([2]; 90 min): 100 ± 0.00%

CC(=O)O[C@H]1C(=O)[C@@]2(C)[C@H]([C@H](OC(=O)c3ccccc3)[C@]3(O)C[C@H](OC(=O)[C@H](O)[C@@H](NC(=O)c4ccccc4)c4ccccc4)C(C)=C1C3(C)C)[C@]1(OC(C)=O)CO[C@@H]1C[C@@H]2O [Paclitaxel, reference compound]
IC50 (A498): 95.23 ± 0.23 µM | IC50 (NCI-H226): 61.29 ± 0.31 µM | IC50 (MDR2780AD): 0.18 ± 0.008 µM | IC50 (HepG2): 7.51 ± 0.3 µM

COc1cccc(C2(O)CCCCC2CN(C)C)c1 (stereo not drawn) [Tramadol, reference compound]
Latency time on hot plate (Hot plate analgesic test; 30 min): 24.30 ± 0.07 s | Latency time on hot plate (Hot plate analgesic test; 60 min): 25.90 ± 0.08 s | Latency time on hot plate (Hot plate analgesic test; 90 min): 24.80 ± 0.14 s | Latency time on hot plate (Hot plate analgesic test; 120 min): 24.68 ± 0.40 s
